According to the NIST ThermoML archive (doi:10.1021/je900478c):

Test: xn = mol fraction of the nth substance listed
Details: 101 kPa, Liquid; for viscosity: Capillary tube (Ostwald / Ubbelohde) method; for mass density: Vibrating tube method

CCCCOCCOCCO [3,6-dioxa-1-decanol] + O
Details | mass density, 283.15 K [kg/m3] | mass density, 293.15 K [kg/m3] | mass density, 303.15 K [kg/m3] | mass density, 313.15 K [kg/m3] | mass density, 323.15 K [kg/m3] | viscosity, 283.15 K [mPa·s] | viscosity, 293.15 K [mPa·s] | viscosity, 303.15 K [mPa·s] | viscosity, 313.15 K [mPa·s] | viscosity, 323.15 K [mPa·s]
x1 = 0.00199 | 1000.2 | 998.59 | 995.87 | 992.68 | – | – | – | – | – | –
x1 = 0.003 | 1000.41 | 998.79 | 996.01 | 992.86 | – | – | – | – | – | –
x1 = 0.00498 | 1001.05 | 999.2 | 996.31 | 993.28 | – | – | – | – | – | –
x1 = 0.00617 | 1001.43 | 999.48 | 996.53 | 993.43 | – | – | – | – | – | –
x1 = 0.00706 | 1001.75 | 999.68 | 996.67 | 993.51 | – | – | – | – | – | –
x1 = 0.00794 | 1002 | 999.88 | 996.81 | 993.62 | – | – | – | – | – | –
x1 = 0.00892 | 1002.32 | 1000.11 | 996.95 | 993.66 | – | – | – | – | – | –
x1 = 0.00993 | 1002.65 | 1000.34 | 997.07 | 993.71 | – | – | – | – | – | –
x1 = 0.01492 | 1004.27 | 1001.44 | 997.66 | 993.62 | – | – | – | – | – | –
x1 = 0.02056 | 1005.74 | 1002.03 | 997.51 | 993.05 | – | – | – | – | – | –
x1 = 0.0238 | 1006.36 | 1002.2 | 997.18 | 992.61 | – | – | – | – | – | –
x1 = 0.02697 | 1006.66 | 1002.11 | 997 | 992.19 | – | – | – | – | – | –
x1 = 0.03015 | 1006.78 | 1001.94 | 996.61 | 991.64 | – | – | – | – | – | –
x1 = 0.03953 | 1006.53 | 1001.04 | 995.23 | 989.79 | – | – | – | – | – | –
x1 = 0.06038 | 1005.13 | 998.81 | 992.28 | 986.16 | – | – | – | – | – | –
x1 = 0.07987 | 1003.42 | 996.64 | 989.68 | 983.24 | – | – | – | – | – | –
x1 = 0.1 | 1001.67 | 994.55 | 987.21 | 979.73 | 971.95 | 8.644 | 5.684 | 3.974 | 2.914 | 2.216
x1 = 0.2 | 992.63 | 984.71 | 976.63 | 968.47 | 960.1 | 12.36 | 7.986 | 5.482 | 3.942 | 2.943
x1 = 0.2999 | 985.44 | 977.27 | 968.97 | 960.58 | 951.9 | 13.32 | 8.637 | 5.93 | 4.259 | 3.173
x1 = 0.4 | 979.51 | 971.27 | 962.91 | 954.51 | 945.89 | 13.06 | 8.55 | 5.913 | 4.27 | 3.195
x1 = 0.5 | 974.9 | 966.63 | 958.27 | 949.82 | 941.29 | 12.36 | 8.183 | 5.713 | 4.161 | 3.133
x1 = 0.6 | 971.46 | 963.17 | 954.74 | 946.32 | 937.75 | 11.49 | 7.708 | 5.442 | 3.998 | 3.033
x1 = 0.7 | 968.77 | 960.45 | 952.05 | 943.62 | 935.03 | 10.58 | 7.203 | 5.144 | 3.816 | 2.918
x1 = 0.7998 | 966.62 | 958.25 | 949.8 | 941.34 | 932.8 | 9.748 | 6.727 | 4.857 | 3.638 | 2.804
x1 = 0.8999 | 964.58 | 956.18 | 947.72 | 939.34 | 930.8 | 9.038 | 6.309 | 4.601 | 3.474 | 2.697
x1 = 1 | 962.57 | 954.16 | 945.74 | 937.35 | 928.85 | 8.301 | 5.86 | 4.323 | 3.295 | 2.58
